Columns and labels:
Type in all cases: in vivo
Spodoptera littoralis = Spodoptera littoralis (Egyptian cotton leaf worm) cotton leaf disc test; conditions: foliar, 72 h, read-out: control (at least one of mortality, anti-feedant effect, and growth inhibition)
In short: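 Cotton leaf discs on agar were sprayed with aqueous dilutions of 10′000 ppm DMSO stocks, dried and infested with five L1 larvae. Mortality, anti-feedant effect and growth inhibition were scored against untreated samples 3 days after infestation. Control = any of these higher than untreated.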

Tetranychus urticae = Tetranychus urticae (two-spotted spider mite) bean leaf disc test; conditions: foliar, 192 h
Description: Tetranychus urticae (Two-Spotted Spider Mite):
Bean leaf discs on agar in 24-well microtiter plates were sprayed with aqueous test solutions prepared from 10′000 ppm DMSO stock solutions. After drying the leaf discs were infested with a mite population of mixed ages. The samples were assessed for mortality on mixed population (mobile stages) 8 days after infestation.

Thrips tabaci = Thrips tabaci (onion thrips) sunflower leaf disc test; conditions: foliar, 144 h
Description: Thrips tabaci (Onion Thrips):
Sunflower leaf discs were placed on agar in 24-well microtiter plates and sprayed with aqueous test solutions prepared from 10′000 ppm DMSO stock solutions. After drying the leaf discs were infested with a thrips population of mixed ages. The samples were assessed for mortality 6 days after infestation.

Plutella xylostella = Plutella xylostella (diamond back moth) artificial diet test; conditions: 120 h, read-out: effect in at least one of the two categories (mortality or growth inhibition)
In short: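 Artificial diet treated with aqueous compound solutions made from DMSO stocks, dried, then infested with L2 larvae (10 to 15 per well). Mortality and growth inhibition scored versus untreated controls 5 days after infestation. Application rate 200 ppm.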

Diabrotica Balteata = test: Diabrotica balteata (corn root worm) maize sprout test; conditions: 96 h, read-out: effect in at least one of the two categories (mortality or growth inhibition)
In short: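 Maize sprouts on agar were sprayed with aqueous test solutions made from 10′000 ppm DMSO stocks, dried, then infested with 6 to 10 L2 larvae per well. Mortality and growth inhibition versus untreated samples were assessed 4 days after infestation; application rate 200 ppm.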

Myzus persicae = Myzus persicae (green peach aphid) sunflower leaf disc test; conditions: foliar, 144 h
Description: Myzus persicae (Green Peach Aphid):
Sunflower leaf discs were placed on agar in a 24-well microtiter plate and sprayed with test solutions at an application rate of 200 ppm. After drying, the leaf discs were infested with an aphid population of mixed ages. After an incubation period of 6 days after treatment, samples were checked for mortality. The following compounds gave at least 80% mortality of Myzus persicae: […]

CO/N=C(\C)COC1=NOC(NC(=O)c2ccc(C3=NO[C@@](c4cc(Cl)c(Cl)c(Cl)c4)(C(F)(F)F)C3)cc2C)C1 (stereo partly drawn) [Compound A116, N-[3-[(2E)-2-methoxyiminopropoxy]-4,5-dihydroisoxazol-5-yl]-2-methyl-4-[(5S)-5-(3,4,5-trichlorophenyl)-5-(trifluoromethyl)-4H-isoxazol-3-yl]benzamide]
≥ 80%: percent control (mortality, anti-feedant effect or growth inhibition) at 200 ppm (Spodoptera littoralis) | mortality at 200 ppm (Tetranychus urticae) | mortality at 200 ppm (Thrips tabaci) | percent effect (mortality or growth inhibition) at 200 ppm (Plutella xylostella) | percent effect (mortality or growth inhibition) at 200 ppm (Diabrotica Balteata) | mortality at 200 ppm (Myzus persicae)

CO/N=C/C1=NOC(NC(=O)c2ccc(C3=NO[C@@](c4cc(Cl)c(F)c(Cl)c4)(C(F)(F)F)C3)cc2C)C1 (stereo partly drawn) [Compound A119, 4-[(5S)-5-(3,5-dichloro-4-fluoro-phenyl)-5-(trifluoromethyl)-4H-isoxazol-3-yl]-N-[3-[(E)-methoxyiminomethyl]-4,5-dihydroisoxazol-5-yl]-2-methyl-benzamide]
≥ 80%: percent control (mortality, anti-feedant effect or growth inhibition) at 200 ppm (Spodoptera littoralis) | mortality at 200 ppm (Tetranychus urticae) | mortality at 200 ppm (Thrips tabaci) | percent effect (mortality or growth inhibition) at 200 ppm (Plutella xylostella) | percent effect (mortality or growth inhibition) at 200 ppm (Diabrotica Balteata) | mortality at 200 ppm (Myzus persicae)

CNC1=NOC(NC(=O)c2ccc(C3=NO[C@@](c4cc(Cl)c(F)c(Cl)c4)(C(F)(F)F)C3)cc2C)C1 (stereo partly drawn) [Compound A120]
≥ 80%: percent control (mortality, anti-feedant effect or growth inhibition) at 200 ppm (Spodoptera littoralis) | mortality at 200 ppm (Tetranychus urticae) | mortality at 200 ppm (Thrips tabaci) | percent effect (mortality or growth inhibition) at 200 ppm (Plutella xylostella) | percent effect (mortality or growth inhibition) at 200 ppm (Diabrotica Balteata) | mortality at 200 ppm (Myzus persicae)

CC(=O)COC1=NOC(NC(=O)c2ccc(C3=NO[C@@](c4cc(Cl)c(Cl)c(Cl)c4)(C(F)(F)F)C3)cc2C)C1 (stereo partly drawn) [Compound A121, N-(3-acetonyloxy-4,5-dihydroisoxazol-5-yl)-2-methyl-4-[(5S)-5-(3,4,5-trichlorophenyl)-5-(trifluoromethyl)-4H-isoxazol-3-yl]benzamide]
≥ 80%: percent control (mortality, anti-feedant effect or growth inhibition) at 200 ppm (Spodoptera littoralis) | mortality at 200 ppm (Tetranychus urticae) | mortality at 200 ppm (Thrips tabaci) | percent effect (mortality or growth inhibition) at 200 ppm (Plutella xylostella) | percent effect (mortality or growth inhibition) at 200 ppm (Diabrotica Balteata) | mortality at 200 ppm (Myzus persicae)

CCC1(COC2=NOC(NC(=O)c3ccc(C4=NO[C@@](c5cc(Cl)c(Cl)c(Cl)c5)(C(F)(F)F)C4)cc3C)C2)COC1 (stereo partly drawn) [Compound A122, N-[3-[(3-ethyloxetan-3-yl)methoxy]-4,5-dihydroisoxazol-5-yl]-2-methyl-4-[(5S)-5-(3,4,5-trichlorophenyl)-5-(trifluoromethyl)-4H-isoxazol-3-yl]benzamide]
≥ 80%: percent control (mortality, anti-feedant effect or growth inhibition) at 200 ppm (Spodoptera littoralis) | mortality at 200 ppm (Tetranychus urticae) | mortality at 200 ppm (Thrips tabaci) | percent effect (mortality or growth inhibition) at 200 ppm (Plutella xylostella) | percent effect (mortality or growth inhibition) at 200 ppm (Diabrotica Balteata) | mortality at 200 ppm (Myzus persicae)

Cc1cc(C2=NO[C@@](c3cc(Cl)c(Cl)c(Cl)c3)(C(F)(F)F)C2)ccc1C(=O)NC1CC(OCC2(C)COC2)=NO1 (stereo partly drawn) [Compound A123, 2-methyl-N-[3-[(3-methyloxetan-3-yl)methoxy]-4,5-dihydroisoxazol-5-yl]-4-[(5S)-5-(3,4,5-trichlorophenyl)-5-(trifluoromethyl)-4H-isoxazol-3-yl]benzamide]
≥ 80%: percent control (mortality, anti-feedant effect or growth inhibition) at 200 ppm (Spodoptera littoralis) | mortality at 200 ppm (Tetranychus urticae) | mortality at 200 ppm (Thrips tabaci) | percent effect (mortality or growth inhibition) at 200 ppm (Plutella xylostella) | percent effect (mortality or growth inhibition) at 200 ppm (Diabrotica Balteata) | mortality at 200 ppm (Myzus persicae)

Cc1cc(C2=NO[C@@](c3cc(Cl)c(Cl)c(Cl)c3)(C(F)(F)F)C2)ccc1C(=O)NC1CC(OCc2ccncc2)=NO1 (stereo partly drawn) [Compound A124, 2-methyl-N-[3-(4-pyridylmethoxy)-4,5-dihydroisoxazol-5-yl]-4-[(5S)-5-(3,4,5-trichlorophenyl)-5-(trifluoromethyl)-4H-isoxazol-3-yl]benzamide]
≥ 80%: percent control (mortality, anti-feedant effect or growth inhibition) at 200 ppm (Spodoptera littoralis) | mortality at 200 ppm (Tetranychus urticae) | mortality at 200 ppm (Thrips tabaci) | percent effect (mortality or growth inhibition) at 200 ppm (Plutella xylostella) | percent effect (mortality or growth inhibition) at 200 ppm (Diabrotica Balteata) | mortality at 200 ppm (Myzus persicae)

— US10499642B2, “Isoxazoline-substituted benzamides and analogues as insecticides” (SYNGENTA PARTICIPATIONS AG, priority 2015, dated 2019)
